In experiment [1] the target is T1, Recombinant wild type LRRK2 protein (Homo sapiens, UniProt Q5S007).
T1 construct: purchased Life Technologies PR8604B
Description: LanthaScreen Kinase Activity Assay (TR-FRET), wild type LRRK2. The experiment is classed as biochemical. The note with it: class symbols; 25 μM ATP, 400 nM LRRKtide, 2.9 nM kinase, 60 min at room temperature; read-out: LRRK2 WT IC50. In short, it runs like this: (§1)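 Recombinant wild-type or G2019S LRRK2 (2.9 nM final) phosphorylated fluorescein-LRRKtide (400 nM) with 25 μM ATP in 50 mM Tris pH 8.5, 5 mM MgCl2, 1 mM EGTA, 0.01% Brij-35, 2 mM DTT for 60 min at RT. After EDTA stop, Tb-anti-pERM TR-FRET (520/495 nm ratio) was read. IC50 values came from 11-point, 3-fold compound dilutions.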
For orientation: TR-FRET usually uses a lanthanide donor and a delayed reading to cut background.

Experiment [2] concerns the target T2, Recombinant G2019S-LRRK2 protein (Homo sapiens, UniProt Q5S007, G2019S).
T2 construct: purchased Life Technologies PV4881
Description: LanthaScreen Kinase Activity Assay (TR-FRET), G2019S-LRRK2. The class given is biochemical. The note with it: class symbols; 25 μM ATP, 400 nM LRRKtide, 2.9 nM kinase, 60 min at room temperature. In short, it runs like this:
as §1

Drawing on patent US20220162192A1 (ESCAPE Bio, Inc., priority 2019, published 2022), this text covers IC50 for 10 molecules.

SMILES strings stand for the structures. Some results are limits rather than exact numbers.

T1 sequence (Q5S007 whole entry): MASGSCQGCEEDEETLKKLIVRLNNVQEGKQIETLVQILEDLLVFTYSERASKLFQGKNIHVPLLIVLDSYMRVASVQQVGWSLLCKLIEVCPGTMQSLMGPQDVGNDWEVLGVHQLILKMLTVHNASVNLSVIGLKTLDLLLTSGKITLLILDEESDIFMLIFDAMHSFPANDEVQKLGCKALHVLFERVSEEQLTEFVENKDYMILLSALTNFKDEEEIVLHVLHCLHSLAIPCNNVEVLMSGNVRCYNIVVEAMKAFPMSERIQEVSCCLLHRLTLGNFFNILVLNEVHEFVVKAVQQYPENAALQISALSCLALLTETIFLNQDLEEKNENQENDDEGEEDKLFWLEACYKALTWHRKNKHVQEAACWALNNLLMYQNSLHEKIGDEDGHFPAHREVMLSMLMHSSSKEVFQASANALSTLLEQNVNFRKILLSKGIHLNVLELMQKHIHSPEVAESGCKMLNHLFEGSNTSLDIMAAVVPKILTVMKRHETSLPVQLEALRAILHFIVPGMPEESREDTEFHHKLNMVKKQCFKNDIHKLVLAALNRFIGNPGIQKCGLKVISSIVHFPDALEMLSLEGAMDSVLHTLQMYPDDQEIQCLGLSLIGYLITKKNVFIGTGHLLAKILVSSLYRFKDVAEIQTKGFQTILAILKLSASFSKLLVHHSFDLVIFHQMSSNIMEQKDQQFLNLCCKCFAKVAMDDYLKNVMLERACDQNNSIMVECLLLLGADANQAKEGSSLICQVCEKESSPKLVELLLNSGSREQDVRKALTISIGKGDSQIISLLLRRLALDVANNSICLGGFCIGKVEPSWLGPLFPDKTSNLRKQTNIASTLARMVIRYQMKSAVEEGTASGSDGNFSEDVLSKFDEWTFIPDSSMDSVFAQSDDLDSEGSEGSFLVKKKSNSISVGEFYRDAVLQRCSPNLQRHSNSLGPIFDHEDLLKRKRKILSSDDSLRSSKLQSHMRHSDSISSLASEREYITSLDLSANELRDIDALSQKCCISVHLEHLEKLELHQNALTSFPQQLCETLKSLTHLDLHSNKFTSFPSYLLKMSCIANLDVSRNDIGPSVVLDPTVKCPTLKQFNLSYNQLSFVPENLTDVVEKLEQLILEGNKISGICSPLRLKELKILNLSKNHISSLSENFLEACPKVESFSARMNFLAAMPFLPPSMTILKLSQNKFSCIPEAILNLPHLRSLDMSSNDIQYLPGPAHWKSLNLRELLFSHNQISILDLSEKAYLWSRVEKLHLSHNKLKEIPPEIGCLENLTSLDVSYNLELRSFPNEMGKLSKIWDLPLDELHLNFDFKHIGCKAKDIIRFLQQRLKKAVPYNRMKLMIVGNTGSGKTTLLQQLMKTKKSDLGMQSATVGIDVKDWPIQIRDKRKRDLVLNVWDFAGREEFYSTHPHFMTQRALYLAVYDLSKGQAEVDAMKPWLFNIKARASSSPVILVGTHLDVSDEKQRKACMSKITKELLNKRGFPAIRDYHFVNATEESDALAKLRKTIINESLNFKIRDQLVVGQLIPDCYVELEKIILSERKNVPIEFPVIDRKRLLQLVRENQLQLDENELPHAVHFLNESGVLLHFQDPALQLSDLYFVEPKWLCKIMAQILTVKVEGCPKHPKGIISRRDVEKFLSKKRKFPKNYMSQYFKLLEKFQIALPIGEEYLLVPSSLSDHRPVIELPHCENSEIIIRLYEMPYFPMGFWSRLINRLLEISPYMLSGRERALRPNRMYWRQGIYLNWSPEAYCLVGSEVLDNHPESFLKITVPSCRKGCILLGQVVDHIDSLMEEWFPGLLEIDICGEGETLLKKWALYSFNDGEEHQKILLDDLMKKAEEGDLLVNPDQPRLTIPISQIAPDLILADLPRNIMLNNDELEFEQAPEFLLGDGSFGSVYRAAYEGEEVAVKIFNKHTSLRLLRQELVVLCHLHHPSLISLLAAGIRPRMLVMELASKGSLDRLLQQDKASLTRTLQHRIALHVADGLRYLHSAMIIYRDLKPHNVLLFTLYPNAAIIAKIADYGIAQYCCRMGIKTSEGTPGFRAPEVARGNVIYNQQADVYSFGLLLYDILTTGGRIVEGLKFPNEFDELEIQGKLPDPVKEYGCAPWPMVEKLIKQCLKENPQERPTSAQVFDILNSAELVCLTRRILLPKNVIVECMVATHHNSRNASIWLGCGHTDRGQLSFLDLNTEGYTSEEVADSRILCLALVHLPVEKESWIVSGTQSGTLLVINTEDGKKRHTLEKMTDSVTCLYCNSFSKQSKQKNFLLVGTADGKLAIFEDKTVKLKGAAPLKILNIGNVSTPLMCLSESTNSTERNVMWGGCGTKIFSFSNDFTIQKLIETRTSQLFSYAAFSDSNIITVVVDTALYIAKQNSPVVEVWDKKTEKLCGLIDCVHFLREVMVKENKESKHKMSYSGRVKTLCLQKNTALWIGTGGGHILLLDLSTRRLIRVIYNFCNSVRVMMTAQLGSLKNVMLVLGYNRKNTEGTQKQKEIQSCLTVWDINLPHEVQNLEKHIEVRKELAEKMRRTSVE
T2 sequence (Q5S007 whole entry G2019S): as the sequence (Q5S007 whole entry) above, with G2019S counted along it

What is called IC50 is the point on the concentration scale where inhibition reaches its midpoint. For `Cn1ncc2c(F)c(C(=O)Nc3ccc4[nH]nc(-c5cocn5)c4c3)c(F)cc21` [Example 136, 4,6-Difluoro-1-methyl-N-(3-(oxazol-4-yl)-1H-indazol-5-yl)-1H-indazole-5-carboxamide], the IC50 in experiment [1] was 100 to 1000 nM; in experiment [2], at most 100 nM.

On to `Cn1ncc2c(F)c(C(=O)Nc3ccc4[nH]nc(C(F)(F)F)c4c3)c(F)cc21` [Example 115, 4,6-Difluoro-1-methyl-N-(3-(trifluoromethyl)-1H-indazol-5-yl)-1H-indazole-5-carboxamide], for which the results for the IC50 in experiment [1] and in experiment [2] were 100 to 1000 nM and at most 100 nM, respectively.

In the case of `Cc1cc2cncn2cc1C(=O)Nc1ccc2[nH]nc(-c3ccoc3)c2c1` [Example 146, N-(3-(Furan-3-yl)-1H-indazol-5-yl)-7-methylimidazo[1,5-a]pyridine-6-carboxamide], the IC50 in experiment [1] and in experiment [2] was at most 100 nM each time.

For `Cc1ccncc1-c1n[nH]c2ccc(NC(=O)c3c(F)cc4c(cnn4C)c3F)cc12` [Example 38, 4,6-Difluoro-1-methyl-N-(3-(4-methylpyridin-3-yl)-1H-indazol-5-yl)-1H-indazole-5-carboxamide], the IC50 in experiment [1] and in experiment [2] was 1000 to 10000 nM throughout.

On to `Cc1cc2cncn2c(C)c1C(=O)Nc1ccc2[nH]nc(-c3ccccc3)c2c1` [Example 69, 5,7-Dimethyl-N-(3-phenyl-1H-indazol-5-yl)imidazo[1,5-a]pyridine-6-carboxamide], for which the half-inhibitory concentration (IC50) in experiment [1] and in experiment [2] was at most 100 nM in each case.

For `O=C(Nc1ccc2[nH]nc(-c3ccoc3)c2c1)c1ccc2ncoc2c1` [Example 116, N-(3-(furan-3-yl)-1H-indazol-5-yl)benzo[d]oxazole-6-carboxamide], the figures for the concentration for half-maximal inhibition (IC50) in experiment [1] and in experiment [2] were 100 to 1000 nM and at most 100 nM, respectively.

In the case of `Cn1ncc2c(F)c(C(=O)Nc3ccc4[nH]nc(-c5ccncn5)c4c3)c(F)cc21` [Example 73, 4,6-Difluoro-1-methyl-N-(3-(pyrimidin-4-yl)-1H-indazol-5-yl)-1H-indazole-5-carboxamide], the 50% inhibitory concentration (IC50) in experiment [1] and in experiment [2] was at most 100 nM throughout.

Regarding `Cc1c(C(=O)Nc2ccc3[nH]nc(-c4cnco4)c3c2)ncc2c1cnn2C` [Example 169, 1,4-Dimethyl-N-(3-(oxazol-5-yl)-1H-indazol-5-yl)-1H-pyrazolo[3,4-c]pyridine-5-carboxamide], the IC50 in experiment [1] was 100 to 1000 nM; in experiment [2] it was at most 100 nM.

`Cc1cn2cnnc2c(C)c1C(=O)Nc1ccc2[nH]nc(-c3ccccc3)c2c1` [Example 57, 6,8-Dimethyl-N-(3-phenyl-1H-indazol-5-yl)-[1,2,4]triazolo[4,3-a]pyridine-7-carboxamide]: the IC50 in experiment [1] and in experiment [2] was at most 100 nM throughout.

For `O=C(Nc1ccc2[nH]nc(-c3ccoc3)c2c1)c1cnc2nccn2c1` [Example 129, N-(3-(Furan-3-yl)-1H-indazol-5-yl)imidazo[1,2-a]pyrimidine-6-carboxamide], the IC50 in experiment [1] was 100 to 1000 nM; in experiment [2], at most 100 nM.
